Measured values from patent publication US9593149B2, “Amylin and calcitonin receptor agonist” (Novo Nordisk A/S, priority 2014, dated 2017).
Numbered stars: 1 amine (or outer) side, 2 acyl side, 3 side chain; on linkers, the order of the positions; unused ones are H or OH. Peptide text beside a SMILES is read from it. * marks the point of attachment. C18 diacid = O=C(O)CCCCCCCCCCCCCCCCC(=O)*; C16 diacid = O=C(O)CCCCCCCCCCCCCCC(=O)*; γGlu = O=C(O)[C@H](CCC(=O)[*:2])N[*:1]; C14 diacid = O=C(O)CCCCCCCCCCCCC(=O)*

Assays:
[1] = Assay (IV) determination of solubility; format: physicochemical
Protocol: Assay (IV)—Determination of Solubility
The mimylin peptide was dissolved in water at ˜500 nmol/ml and mixed 1:1 with a series of buffers (100 mM glycylglycine pH 3.0, 100 mM glycylglycine pH 4.0, 100 mM glycylglycine pH 5.0, 100 mM bistrispropane pH 6.0, 100 mM bistrispropane pH 6.5, 100 mM bistrispropane pH 7.0, 100 mM bistrispropane pH 7.5, 100 mM bistrispropane pH 8.0).

[2] = Assay (IX) pK, T½ in mini-pig; format: in vivo, Göttingen mini-pigs; conditions: i.v.
In short: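 Female Göttingen mini-pigs (5–12 months, 15–35 kg, fed freely) received a single i.v. dose of approximately 5 nmol/kg via central venous catheter, typically n=3. Plasma was sampled from pre-dose to 240 h (sometimes 288 h) and quantified by LC-MS. T½ was derived by non-compartmental analysis from the terminal log-linear slope (ln2/λz).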

Assay (X) pK, T½ in rat = format: in vivo, Sprague Dawley rats; conditions: for PK rat iv T½: i.v.; for PK rat sc T½: s.c.
Protocol: Assay (X)—pK—Determination of T½ in Rat
Pharmacokinetic (PK) studies rats were conducted in order to determine the T½ of mimylin peptide after i.v. and s.c. administration.
T½ values of the mimylin derivates of the invention is determined by pharmacokinetic studies in Sprague Dawley male rats, from Taconic Europe and the principles of laboratory animal care are followed.
An acclimatisation period of approximately 7 days was allowed before the animals entered the study. At start of the acclimatisation period the rats were in the weight range of 250-400 g.
The studies were conducted in an animal room which was illuminated to give a cycle of approximately 12 hours light and 12 hours darkness. The animals were group housed and had food and water ad lib. The animals were weighed on the days of dosing.
In the present studies the test substances were administered subcutaneously or intravenously in approximately 20 nmol/kg dose. The animals received a single subcutaneous injection to the neck for subtaneous administration or directly into the tail vein for intravenous administration. Each test substance was given to typically three but in some cases two or four animals.
A full plasma concentration-time profile, employing 8-10 sampling points, was obtained from each animal. In example blood samples were collected according to the following schedule: After subcutaneous or intravenous administration:
At each sampling time, 0.08 to 0.10 ml of blood was drawn from each animal. The blood samples were taken in the sublingual vein via venous puncture and the use of a capillary tube.
The blood samples were stabilised with EDTA. Blood samples were kept on ice for max 20 min. before centrifugation. Plasma was separated using centrifugation (i.e. at 4° C., 10 min., 1500G) and was immediately transferred to Micronic tubes or PCR plates. Approximately 40 μl plasma was transferred and was stored at −20° C. until assayed. The plasma samples were assayed for the content of mimylin compound by LCMS
The plasma concentration-time profiles were analysed by a non-compartmental pharmacokinetic analysis (NCA) using Phoenix WinNonlin 6.3 (Pharsight Inc., Mountain View, Calif., USA). NCA was performed using the individual plasma concentration-time profiles from each animal. T½ is the terminal half-life=In2/λz and was determined from λz, the first order rate constant associated with the terminal (log-linear) portion of the curve, estimated by linear regression of time vs. log concentration.

[3] = biological target: T1, human amylin 3(a) receptor (human calcitonin receptor + RAMP-3), BHK570 cells (Homo sapiens, UniProt O60896+P30988); experiment: Assay (II)a functional CRE-luciferase assay with albumin, human amylin receptor; format: cell-based; conditions: Tested with HSA; read-out: hAmylin-R funct. EC50
T1 construct: host or cells: BHK570
T1 sequence (O60896 24-148, one chain of several): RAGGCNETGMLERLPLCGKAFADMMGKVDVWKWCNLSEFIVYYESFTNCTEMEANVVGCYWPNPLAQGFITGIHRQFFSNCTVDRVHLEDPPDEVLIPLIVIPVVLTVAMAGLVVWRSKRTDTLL
Text: (§1) Assay(II)a—Human Calcitonin and Amylin Receptor Assay
(§2) 1. Luciferase Assay Outline
(§3) Activation of calcitonin and amylin (co-expression of calcitonin receptor and receptor activity modifying proteins (RAMP)) receptors lead to increased intracellular concentrations of cAMP. Consequently, transcription is activated by promoters containing multiple copies of the cAMP response element (CRE). It is thus possible to measure amylin activity by the use of a CRE luciferase reporter gene introduced into BHK cells also expressing calcitonin or amylin receptors.
(§4) 2. Construction of Calcitonin (a)—and Amylin 3(a)—Receptor/CRE-Luc Cell Line.
(§5) A BHK570 cell line was stably transfected with the human calcitonin receptor and a CRE-responsive luciferase reporter gene. The cell line was further transfected with RAMP-3, using standard methods. This turns the calcitonin receptor into an amylin 3(a) receptor. Methotrexate, Neomycin, and Hygromycin are selection markers for luciferase, the calcitonin receptor, and RAMP-3, respectively.
(§6) To perform activity assays, BHK calcitonin (a) receptor- or amylin 3(a)-receptor/CRE-luc cells were seeded in white 96 well culture plates at a density of about 20.000 cells/well. […] After incubation overnight at 37° C. and 5% CO2, the growth medium was replaced by 50 μl/well assay medium (DMEM (without phenol red), Glutamax™, 10% FBS, and 10 mM Hepes, pH 7.4). Further, 50 μl/well of standard or sample in assay buffer were added.
(§7) After 3 hours incubation at 37° C. and 5% CO2, the assay medium with standard or sample were removed and replaced by 100 μl/well PBS. Further, 100 μl/well LucLite™ was added. The plates were sealed and incubated at room temperature for 30 minutes. Finally, luminescence was tested on a TopCounter (Packard) in SPC (single photon counting) mode.

[4] = biological target: T2, human calcitonin (a) receptor, BHK570 cells (Homo sapiens, UniProt P30988); experiment: Assay (II)a functional CRE-luciferase assay with albumin, human calcitonin receptor; format: cell-based; conditions: Tested with HSA; read-out: hCTR funct. EC50
T2 construct: host or cells: BHK570
T2 sequence (P30988 25-474): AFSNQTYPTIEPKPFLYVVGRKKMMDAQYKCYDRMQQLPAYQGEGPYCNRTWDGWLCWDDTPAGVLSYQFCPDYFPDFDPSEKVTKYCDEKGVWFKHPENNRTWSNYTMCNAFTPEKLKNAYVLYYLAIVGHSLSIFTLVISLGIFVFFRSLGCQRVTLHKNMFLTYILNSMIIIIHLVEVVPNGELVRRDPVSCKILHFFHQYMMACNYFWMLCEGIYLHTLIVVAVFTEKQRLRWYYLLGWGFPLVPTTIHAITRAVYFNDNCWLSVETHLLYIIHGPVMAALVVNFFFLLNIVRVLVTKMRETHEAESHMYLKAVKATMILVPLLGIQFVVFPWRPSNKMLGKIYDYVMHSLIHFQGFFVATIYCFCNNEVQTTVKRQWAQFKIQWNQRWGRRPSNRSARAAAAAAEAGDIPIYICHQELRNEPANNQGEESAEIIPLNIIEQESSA
Text: as §1, §2, §3, §4, §5, §6, §7

[5] = biological target: T1, human amylin 3(a) receptor (human calcitonin receptor + RAMP-3), BHK570 cells; experiment: Assay (II)b functional CRE-luciferase assay without albumin, human amylin receptor; format: cell-based; conditions: Tested without HSA; read-out: hAmylin-R funct. EC50
In short: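 Agonism measured as CRE-driven luciferase luminescence after 3 h sample exposure at 37 °C, without albumin (0.1% ovalbumin, Hepes pH 7.4 medium). Reporter cells: BHK570 carrying human calcitonin receptor, co-transfected with RAMP-3 to form the amylin 3(a) receptor.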

[6] = biological target: T2, human calcitonin (a) receptor, BHK570 cells; experiment: Assay (II)b functional CRE-luciferase assay without albumin, human calcitonin receptor; format: cell-based; conditions: Tested without HSA; read-out: hCTR funct. EC50
In short: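 BHK570 cells stably expressing human calcitonin receptor with CRE-luciferase reporter, plus RAMP-3 for the amylin 3(a) line. Cells stimulated 3 hours at 37 °C in albumin-free assay medium (0.1% ovalbumin, 10 mM Hepes pH 7.4); cAMP-driven luciferase read by luminescence.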

SMILES | Solubility ([1]; pH 3.0) | Solubility ([1]; pH 4.0) | Solubility ([1]; pH 5.0) | Solubility ([1]; pH 6.0) | Solubility ([1]; pH 6.5) | Solubility ([1]; pH 7.0) | Solubility ([1]; pH 7.5) | Solubility ([1]; pH 8.0) | PK mini pig iv T½ [2] [h] | PK rat iv T½ (Assay (X) pK, T½ in rat) [h] | PK rat sc T½ (Assay (X) pK, T½ in rat) [h] | also measured
CC(C)C[C@H](NC(=O)[C@H](C)NC(=O)[C@H](C)NC(=O)[C@@H](NC(=O)[C@H](CO)NC(=O)[C@H](CC(C)C)NC(=O)[C@H](CCC(=O)O)NC(=O)[C@H](CO)NC(=O)[C@H](C)NC(=O)[C@H](CCC(=O)O)NC(=O)CCCCCCCCCCCCCCC(=O)O)[C@@H](C)O)C(=O)NCC(=O)N[C@@H](CCCNC(=N)N)C(=O)N[C@@H](CC(C)C)C(=O)N[C@@H](CO)C(=O)N[C@@H](C)C(=O)N[C@@H](CCC(=O)O)C(=O)N[C@@H](CC(C)C)C(=O)N[C@@H](Cc1cnc[nH]1)C(=O)N[C@@H](CCC(=O)O)C(=O)N[C@@H](CC(C)C)C(=O)N[C@@H](C)C(=O)N[C@H](C(=O)N[C@@H](CC(C)C)C(=O)N1CCC[C@H]1C(=O)N[C@@H](CCCNC(=N)N)C(=O)N[C@H](C(=O)N[C@@H](CCC(=O)O)C(=O)N[C@H](C(=O)NCC(=O)N1CCC[C@H]1C(=O)N[C@@H](CCC(=O)O)C(=O)N[C@@H](CO)C(=O)N1CCC[C@H]1C(N)=O)[C@@H](C)O)[C@@H](C)O)[C@@H](C)O [compound 3, [N-terminal(C16 diacid)]mimylin] ({C16 diacid}-EASELSTAALGRLSAELHELATLPRTETGPESP-NH2) | ≧200 μM | ≧200 μM | ≧200 μM | ≧200 μM | ≧200 μM | ≧200 μM | ≧200 μM | ≧200 μM | 17 | 3 | 3 | –
CC(C)C[C@H](NC(=O)[C@H](C)NC(=O)[C@H](C)NC(=O)[C@@H](NC(=O)[C@H](CO)NC(=O)[C@H](CC(C)C)NC(=O)[C@H](CCC(=O)O)NC(=O)[C@H](CO)NC(=O)[C@H](C)NC(=O)CC[C@H](NC(=O)CCCCCCCCCCCCCCCCC(=O)O)C(=O)O)[C@@H](C)O)C(=O)NCC(=O)N[C@@H](CCCNC(=N)N)C(=O)N[C@@H](CC(C)C)C(=O)N[C@@H](CO)C(=O)N[C@@H](C)C(=O)N[C@@H](CCC(=O)O)C(=O)N[C@@H](CC(C)C)C(=O)N[C@@H](Cc1c[nH]cn1)C(=O)N[C@@H](CCC(=O)O)C(=O)N[C@@H](CC(C)C)C(=O)N[C@@H](C)C(=O)N[C@H](C(=O)N[C@@H](Cc1ccc(O)cc1)C(=O)N1CCC[C@H]1C(=O)N[C@@H](CCCNC(=N)N)C(=O)N[C@H](C(=O)N[C@@H](CCC(=O)O)C(=O)N[C@H](C(=O)NCC(=O)N[C@@H](CO)C(=O)NCC(=O)N[C@@H](CO)C(=O)N1CCC[C@H]1C(N)=O)[C@@H](C)O)[C@@H](C)O)[C@@H](C)O [compound 58, [N-terminal(C18 diacid-gGlu), des1, 23Y, 30S, 31G]mimylin] ({C18 diacid-γGlu}-ASELSTAALGRLSAELHELATYPRTETGSGSP-NH2) | – | – | – | – | – | – | – | – | – | – | – | EC50 [3]: 24 pM; EC50 [4]: 15 pM; EC50 [5]: 10 pM; EC50 [6]: 10 pM; solubility at 18 h ([1]; bistrispropane buffer, pH 6.5): ≥ 200 µM; solubility at 18 h ([1]; bistrispropane buffer, pH 7.5): ≥ 200 µM; solubility at 18 h ([1]; bistrispropane buffer, pH 6.0): ≥ 200 µM; solubility at 18 h ([1]; bistrispropane buffer, pH 7.0): ≥ 200 µM; solubility at 18 h ([1]; bistrispropane buffer, pH 8.0): ≥ 200 µM; solubility at 18 h ([1]; glycylglycine buffer, pH 3.0): ≥ 200 µM; solubility at 18 h ([1]; glycylglycine buffer, pH 4.0): ≥ 200 µM; solubility at 18 h ([1]; glycylglycine buffer, pH 5.0): ≥ 200 µM
CC(C)C[C@H](NC(=O)[C@H](C)NC(=O)[C@H](C)NC(=O)[C@@H](NC(=O)[C@H](CO)NC(=O)[C@H](CC(C)C)NC(=O)[C@H](CCC(=O)O)NC(=O)[C@H](CO)NC(=O)[C@H](C)NC(=O)[C@H](CCC(=O)O)NC(=O)CCCCCCCCCCCCC(=O)O)[C@@H](C)O)C(=O)NCC(=O)N[C@@H](CCCNC(=N)N)C(=O)N[C@@H](CC(C)C)C(=O)N[C@@H](CO)C(=O)N[C@@H](C)C(=O)N[C@@H](CCC(=O)O)C(=O)N[C@@H](CC(C)C)C(=O)N[C@@H](Cc1cnc[nH]1)C(=O)N[C@@H](CCC(=O)O)C(=O)N[C@@H](CC(C)C)C(=O)N[C@@H](C)C(=O)N[C@H](C(=O)N[C@@H](CC(C)C)C(=O)N1CCC[C@H]1C(=O)N[C@@H](CCCNC(=N)N)C(=O)N[C@H](C(=O)N[C@@H](CCC(=O)O)C(=O)N[C@H](C(=O)NCC(=O)N1CCC[C@H]1C(=O)N[C@@H](CCC(=O)O)C(=O)N[C@@H](CO)C(=O)N1CCC[C@H]1C(N)=O)[C@@H](C)O)[C@@H](C)O)[C@@H](C)O [Ex. #4, [N-terminal(C14 diacid)]mimylin] ({C14 diacid}-EASELSTAALGRLSAELHELATLPRTETGPESP-NH2) | ≧200 μM | ≧200 μM | ≧200 μM | ≧200 μM | ≧200 μM | ≧200 μM | ≧200 μM | ≧200 μM | 2 | 3 | 3 | –
